From patent US20220110862A1, “TREATMENT OF COGNITIVE DYSFUNCTION WITH PYRROLOPYRIDINE-ANILINE COMPOUNDS” (NFlection Therapeutics, Inc., priority 2020, published 2022)
Values joined by “and” are separate entries in the source; they are usually repeats but may differ in a detail not shown here. Equal entries are not always repeated. Where two headings read alike, the source gives them in different places.

How the values were obtained:
[1] = Plasma concentration of Compound 1.003 after single intranasal administration of nasal formulation Ex. A (LC-MS/MS); format: in vivo, Mouse; conditions: female athymic mice
Description: (§1) This study was conducted to investigate the potential for Compound 1.003 to penetrate into the brain following a single intranasal administration of a nasal formulation including the compound. Compound 1.003 was formulated at a dose strength of 2.3% according to Ex. A of Example 1.
(§2) A single group of female athymic mice each received a single intranasal administration of Compound 1.003. At intervals post dose the animals were sacrificed and samples of blood and brain were collected. The concentration of Compound 1.003 was determined in plasma and brain; and samples of brain were used for determination of the expression of phosphor-ERK (p-ERK).
(§3) The study was conducted using the following animals: • Species: Mouse; • Strain: NCr mu/mu athymic nude mice from Charles River; • Sex: Female; • Age: 7 weeks old at the time of dosing; • Body weight: 20.1 to 27.0 g; and • Number used: 12
(§4) Overview: A single group of 12 athymic female mice each received a single intranasal administration of Compound 1.003 (Ex. A nasal formulation of Example 1). Three animals were sacrificed at each a 4 times post dose and sample of plasma and brain collected at necropsy. The concentration of Compound 1.003 was determined in plasma and brain by liquid chromatography with tandem mass spectrometry (LC-MS/MS) and the expression of p-ERK was determined in brain samples.
(§5) Dosing: Each animal received a single administration (50 μL) of the nasal formulation Ex. A including Compound 1.003. The dose was administration intranasally to each animal.
(§6) (dry ice). The samples were send out for the LC-MS/MS analysis of plasma concentration of Compound 1.003. • Brain Collection: Brain (divide into 2 parts at the mid sagittal plane); Part 1: preservation—snap frozen, ship at −80° C. (dry ice) for the LC-MS/MS analysis of Compound 1.003; and Part 2: preservation—fixed in 10% neutral buffered formalin for at least 24 h. Samples were then transferred after 24 h into 1.5 mL Eppendorf tubes containing 70% EtOH and stored ambient until shipment for the expression of p-ERK.
(§7) Bioanalytical Methods: Bioanalysis of […] plasma and brain samples for Compound 1.003 was performed using the LC-MS/MS analysis. For this study, the analysis was conducted using existing fit for purpose bioanalytical methods. Plasma samples were analyzed undiluted against a plasma standard curve (10 standards between 0.5 to 5000 ng/mL). Prior to analysis for concentration of compound 1.003, the brain samples were weighed, mixed with 5 volumes of water and then homogenised. Homogenised samples were then diluted 2× into plasma and then analysed against the plasma standard curve ([…]). All results were then corrected for the dilution factor.

[2] = Brain concentration and brain:plasma ratio of Compound 1.003 after single intranasal administration of nasal formulation Ex. A (LC-MS/MS); format: in vivo, Mouse; conditions: female athymic mice, single intranasal 50 μL Ex. A; for Brain concentration, animal replicates: individual animals; for Brain concentration, Mean: mean of 3
Description: as §1, §2, §3, §4, §5, §6, §7

Cn1c(Nc2ccc(I)cc2F)c(C(=O)NOCCO)c2cccnc21 [Compound 1.003, 2-((2-fluoro-4-iodophenyl)amino)-N-(2-hydroxyethoxy)-1-methyl-1H-pyrrolo[2,3-b]pyridine-3-carboxamide]
Cmax ([1]; NCr mu/mu athymic nude, mouse, plasma, inhaled or intranasal, single intranasal 50 μL Ex. A, read-out: maximum plasma concentration (Cmax)): 996 ng/mL | Plasma concentration, animal replicates ([1]; single intranasal 50 μL Ex. A, 0.5 h post dose, individual animals): 1000 ng/mL and 823 ng/mL | Plasma concentration, animal replicates ([1]; single intranasal 50 μL Ex. A, 1.0 h post dose, individual animals): 82.4 ng/mL and 125 ng/mL | Plasma concentration, animal replicates ([1]; single intranasal 50 μL Ex. A, 4.0 h post dose, individual animals): 52.4 ng/mL and 82.4 ng/mL | Plasma concentration, animal replicates ([1]; single intranasal 50 μL of nasal formulation Ex. A (2.3%), 0.25 h post dose, individual animals): 1190 ng/mL and 1230 ng/mL and 568 ng/mL | concentration at 0.5 h ([1]; female, NCr mu/mu athymic nude, mouse, plasma, other: intranasal, 50 μL, single intranasal 50 μL Ex. A, 0.5 h post dose, individual animals, read-out: Plasma concentration, animal replicates): 757 ng/mL | concentration at 0.5 h ([1]; female, NCr mu/mu athymic nude, mouse, plasma, other: intranasal, 50 μL, single intranasal 50 μL Ex. A, 0.5 h post dose, mean of 3, read-out: Plasma concentration, Mean): 860 ng/mL | concentration at 1 h ([1]; female, NCr mu/mu athymic nude, mouse, plasma, other: intranasal, 50 μL, single intranasal 50 μL Ex. A, 1.0 h post dose, individual animals, read-out: Plasma concentration, animal replicates): 130 ng/mL | concentration at 1 h ([1]; female, NCr mu/mu athymic nude, mouse, plasma, other: intranasal, 50 μL, single intranasal 50 μL Ex. A, 1.0 h post dose, mean of 3, read-out: Plasma concentration, Mean): 112 ng/mL | concentration at 4 h ([1]; female, NCr mu/mu athymic nude, mouse, plasma, other: intranasal, 50 μL, single intranasal 50 μL Ex. A, 4.0 h post dose, individual animals, read-out: Plasma concentration, animal replicates): 45.5 ng/mL | concentration at 4 h ([1]; female, NCr mu/mu athymic nude, mouse, plasma, other: intranasal, 50 μL, single intranasal 50 μL Ex. A, 4.0 h post dose, mean of 3, read-out: Plasma concentration, Mean): 60.1 ng/mL | concentration at 0.25 h ([1]; female, NCr mu/mu athymic nude, mouse, plasma, other: intranasal, 50 μL, single intranasal 50 μL of nasal formulation Ex. A (2.3%), 0.25 h post dose, mean of 3): 996 ng/mL | Brain:plasma concentration ratio, individual animal ([2]; 0.250 h post dose, animals 1-3): 0.30 and 0.49 | Brain concentration, animal replicates ([2]; 0.250 h post dose): 405 and 375 and 280 | Brain concentration, Mean ([2]; 0.250 h post dose): 353 ng/g | Brain:plasma concentration ratio, individual animal ([2]; 0.500 h post dose, animals 4-6): 0.51 and 0.47 | Brain concentration, animal replicates ([2]; 0.500 h post dose): 297 and 513 and 383 | Brain concentration, Mean ([2]; 0.500 h post dose): 398 ng/g | Brain:plasma concentration ratio, individual animal ([2]; 1.00 h post dose, animals 7-9): 1.45 and 2.49 and 1.15 | Brain concentration, animal replicates ([2]; 1.00 h post dose): 188 and 205 and 144 | Brain concentration, Mean ([2]; 1.00 h post dose): 179 ng/g | Brain:plasma concentration ratio, Mean ([2]; 4.00 h post dose): 1.72 | Brain:plasma concentration ratio, individual animal ([2]; 4.00 h post dose, animals 10-12): 3.65 and 0.89 and 0.63 | Brain concentration, animal replicates ([2]; 4.00 h post dose): 166 and 46.5 and 51.9 | Brain concentration, Mean ([2]; 4.00 h post dose): 88.1 ng/g | Kp at 0.25 h ([2]; female, NCr mu/mu athymic nude, mouse, brain, inhaled or intranasal, 50 μL, 0.250 h (15 min) post dose, read-out: Brain:plasma concentration ratio, Mean): 0.38 | Kp at 0.25 h ([2]; female, NCr mu/mu athymic nude, mouse, brain, inhaled or intranasal, 50 μL, 0.250 h post dose, animals 1-3, read-out: Brain:plasma concentration ratio, individual animal): 0.34 | Kp at 0.5 h ([2]; female, NCr mu/mu athymic nude, mouse, brain, inhaled or intranasal, 50 μL, 0.500 h post dose, animals 4-6, read-out: Brain:plasma concentration ratio, individual animal): 0.39 | Kp at 0.5 h ([2]; female, NCr mu/mu athymic nude, mouse, brain, inhaled or intranasal, 50 μL, 0.500 h post dose, read-out: Brain:plasma concentration ratio, Mean): 0.46 | Kp at 1 h ([2]; female, NCr mu/mu athymic nude, mouse, brain, inhaled or intranasal, 50 μL, 1.00 h post dose): 1.7 | Kp at 4 h ([2]; female, NCr mu/mu athymic nude, mouse, brain, inhaled or intranasal, 50 μL, 4.00 h post dose): 1.7
